According to patent US11957735B2, “Releasable GLP-1 conjugates” (QuiaPEG Pharmaceuticals AB, priority 2018, dated 2024):

Assay: pH-triggered hydrolysis (T1/2) in TRIS buffer at 37° C., HPLC with AZT internal reference
Type: physicochemical
Conditions: pH 8, hydrolysis of aminouridine carbamate, process of Example 1
Protocol: In the following experiment, the T1/2 at pH 8 is calculated to be approx. 11 h, which translates to 44 h at pH 7.4 (factor 4×). ˜1 mg conjugate was dissolved in a volume of 20% MeCN in water. An appropriate amount of azidothymidine (AZT) was added as an internal reference and the hydrolysis was started by addition of a volume of 0.3 M TRIS buffer solution at pH 8.0. The reaction mixture was then kept at 37° C. 30 μL aliquots were taken at each time point and acidified by addition of 20 μL 1 M AcOH before injection to HPLC.

O=C(NC1C(O)[C@@H](CO)O[C@H]1n1ccc(=O)[nH]c1=O)OCC(c1ccccc1)c1ccccc1 (stereo partly shown) [compound 1]
half-life: 12 days
